Where “and” joins values, the source holds several entries; their conditions need not be identical. Identical values can stand only once.
Tested on: adolescent subjects with ADHD and at least one genetic alteration in an mGluR network gene
Experiment: Vanderbilt ADHD score (items 1-18, parent), Phase Ib trial of NFC-1
Assay type: in vivo, human
Settings: for Change in Vanderbilt / Final Vanderbilt: individual subjects, monohydrate; for Change in Vanderbilt: placebo baseline (week 1) to final (week 5); for Final Vanderbilt: week 5; for Mean (SEM) Vanderbilt ADHD score, Repeated Measures Analysis: overall study population; for Percent of subjects completing the dose escalation to 400 mg bid that show improvement in Vanderbilt ADHD scores (at least 25% decrease) / Percent of subjects completing the dose escalation to 400 mg bid that show robust improvement in Vanderbilt ADHD scores (at least 40% decrease) / Percent of subjects demonstrating robust improvement in Vanderbilt ADHD score (at least 40% decrease) / Percent of subjects with improvement in Vanderbilt ADHD score (at least 25% decrease): relative to placebo (week 1) baseline
Source text: The Vanderbilt Rating Scale is a measure that can be completed by parents or teachers (separate forms, see Vanderbilt Rating Scale Parents and Vanderbilt Rating Scale Teachers). The Vanderbilt scale rates the child's behavior on items such as attention, finishing tasks, hyperactivity, difficulty waiting, and measures of conduct or oppositional defiant disorders—as well as measures of overall school performance and interactions with others. The first 18 items on the Vanderbilt scale correspond to those of the ADHD Rating Scale IV above while the Vanderbilt scale also includes items 19-47 related to other mental disorders including ODD (items 19-26), conduct disorder (items 27-40), anxiety (items 41, 42, and 47), and depression (items 43-46). Each of the behavioral assessment items on the Vanderbilt Scale are rated 0, 1, 2, or 3, with 0=never occurring; 1=occasionally, 2=often, and 3=very often. Thus, the ADHD Rating Scale IV, ADHD Rating Scale V, and items 1-18 of the Vanderbilt Rating Scale are equivalent scales, while additional items on the Vanderbilt Scale assess co-morbid phenotypes and disorders.
Each of the items are rated on a scale of 0, 1, 2, or 3, with 0=never; 1=occasionally, 2=often, and 3=very often. A total score of 0 to 54 is computed based on the answers to the 18 questions.
As used herein an “ADHD rating scale score,” “ADHD score” or “Vanderbilt ADHD score” are used interchangeably to refer to the computed score of the 18 items of the ADHD Rating Scale IV or V or the first 18 items of the Vanderbilt Rating Scale in any of their associated versions, e.g., for parent, teacher, or clinician to complete, and for a pediatric subject or adult subject. Clinical trials may assess the impact of drug or placebo on the ADHD score or Vanderbilt ADHD score (i.e. the score of 0 to 54 based on the first 18 items in the ADHD or Vanderbilt rating scale). In some cases, results of a clinical trial population may be analyzed by comparing the average score or a percentage change in score over time of administration of drug.
An open-label Phase Ib clinical trial was initiated to investigate the safety, pharmacokinetics and efficacy of NFC-1 (fasoracetam monohydrate) in adolescent subjects between the ages of 12 and 17 previously diagnosed with ADHD who also had at least one genetic alteration in an mGluR network gene.
Dose-escalation phase of the trial followed the PK and initial safety assessment and ran over a 5-week period. During week 1, all subjects were administered placebo capsules twice daily. After one week of placebo treatment, patients were started on 50 mg bid NFC-1 for 1 week. If safety and responsiveness data from prior dose level of fasoracetam indicated it was appropriate, subjects were then escalated to the next higher dose (100, 200, or 400 mg). […] Of the 30 trial subjects, 3 received a maximum dose of 100 mg, 9 received a maximum dose of 200 mg, and the remaining 18 received a maximum dose of 400 mg.
All efficacy assessments, except actigraphy, were made at study enrollment (“enrollment baseline”) and again, including actigraphy, once-per-week for the placebo week (“week 1” or “placebo baseline”) and at each of the 4 weeks of NFC-1 treatment. These efficacy measures include items 1-18 of the Vanderbilt scale assessing symptoms related to inattentiveness and hyperactivity-impulsiveness as well as additional questions 19-47 of the Vanderbilt scale assessing other behavioral symptoms (conducted by parent), actigraphy for quantitative measurement of activity, Quotient® ADHD test for objective measurement of micro-motion and shifts in attention state, PERMP-Math test, and CGI-I and CGI-S for assessment of global functioning. […]

[1] = Overall, Week 3, up to 100 mg bid
[2] = Overall, Week 4, up to 200 mg bid
[3] = Overall, Week 5, up to 400 mg bid
[4] = Tier 1, Week 3, up to 100 mg bid
[5] = Tier 1, Week 4, up to 200 mg bid
[6] = Tier 1, Week 5, up to 400 mg bid
[7] = Tier 2, Week 3, up to 100 mg bid
[8] = Tier 2, Week 4, up to 200 mg bid
[9] = Tier 2, Week 5, up to 400 mg bid

O=C1CC[C@H](C(=O)N2CCCCC2)N1 [NFC-1, fasoracetam monohydrate]
Vanderbilt (22q syndrome Subject 110, Week 2, 50 mg bid): 20
Vanderbilt (22q syndrome Subject 110, Week 3, 100 mg bid): 17
Vanderbilt (22q syndrome Subject 110, Week 4, 200 mg bid): 16
Vanderbilt (22q syndrome Subject 110, Week 5, 400 mg bid): 17
Vanderbilt (22q syndrome Subject 127, Week 2, 50 mg bid): 45
Vanderbilt (22q syndrome Subject 127, Week 3, 100 mg bid): 25
Vanderbilt (22q syndrome Subject 127, Week 5, 400 mg bid): 33
change in Vanderbilt ADHD score (Subject 110 (22q syndrome), week 5 compared to week 1): 5 points
Change in Vanderbilt (max dose 100 mg bid): −8 and −10 and −32
Final Vanderbilt (max dose 100 mg bid): 0 and 22 and 17
Change in Vanderbilt (max dose 200 mg bid): −14 and −3 and −9 and −32 and −5 and −1 and −35 and −2 and −8
Final Vanderbilt (max dose 200 mg bid): 23 and 3 and 0 and 18 and 31 and 1 and 12 and 39 and 30
Change in Vanderbilt (max dose 400 mg bid): −4 and −5 and 4 and −13 (2×) and 21 and −16 (2×) and 1 and 0 and −9 and −10 and −21 and −6 and −11 and −20 and −1
Final Vanderbilt (max dose 400 mg bid): 6 and 17 (2×) and 34 and 36 and 46 and 12 (2×) and 0 and 15 and 24 and 14 and 23 and 29 and 33 and 16 and 35
Mean (SEM) Vanderbilt ADHD score, Repeated Measures Analysis (Week 2, 50 mg bid): 26.4 (8.1)
Mean (SEM) Vanderbilt ADHD score, Repeated Measures Analysis (Week 3, up to 100 mg bid): 24.0 (8.1)
Mean (SEM) Vanderbilt ADHD score, Repeated Measures Analysis (Week 4, up to 200 mg bid): 23.3 (8.1)
Mean (SEM) Vanderbilt ADHD score, Repeated Measures Analysis (Week 5, up to 400 mg bid): 22.5 (8.1)
Percent of subjects completing the dose escalation to 400 mg bid that show improvement in Vanderbilt ADHD scores (at least 25% decrease) (Overall, Week 2, 50 mg bid): 14%
Percent of subjects completing the dose escalation to 400 mg bid that show robust improvement in Vanderbilt ADHD scores (at least 40% decrease) (Overall, Week 2, 50 mg bid): 7%
Percent of subjects demonstrating robust improvement in Vanderbilt ADHD score (at least 40% decrease) (Overall, Week 2, 50 mg bid): 7%
Percent of subjects with improvement in Vanderbilt ADHD score (at least 25% decrease) (Overall, Week 2, 50 mg bid): 25%
Percent of subjects completing the dose escalation to 400 mg bid that show improvement in Vanderbilt ADHD scores (at least 25% decrease) (Overall, Week 3, 100 mg bid): 36%
Percent of subjects completing the dose escalation to 400 mg bid that show robust improvement in Vanderbilt ADHD scores (at least 40% decrease) (Overall, Week 3, 100 mg bid): 29%
Percent of subjects demonstrating robust improvement in Vanderbilt ADHD score (at least 40% decrease) [1]: 25%
Percent of subjects with improvement in Vanderbilt ADHD score (at least 25% decrease) [1]: 43%
Percent of subjects completing the dose escalation to 400 mg bid that show improvement in Vanderbilt ADHD scores (at least 25% decrease) (Overall, Week 4, 200 mg bid): 36%
Percent of subjects completing the dose escalation to 400 mg bid that show robust improvement in Vanderbilt ADHD scores (at least 40% decrease) (Overall, Week 4, 200 mg bid): 21%
Percent of subjects demonstrating robust improvement in Vanderbilt ADHD score (at least 40% decrease) [2]: 32%
Percent of subjects with improvement in Vanderbilt ADHD score (at least 25% decrease) [2]: 43%
Percent of subjects completing the dose escalation to 400 mg bid that show improvement in Vanderbilt ADHD scores (at least 25% decrease) (Overall, Week 5, 400 mg bid): 57%
Percent of subjects completing the dose escalation to 400 mg bid that show robust improvement in Vanderbilt ADHD scores (at least 40% decrease) (Overall, Week 5, 400 mg bid): 36%
Percent of subjects demonstrating robust improvement in Vanderbilt ADHD score (at least 40% decrease) [3]: 37%
Percent of subjects with improvement in Vanderbilt ADHD score (at least 25% decrease) [3]: 52%
Percent of subjects completing the dose escalation to 400 mg bid that show improvement in Vanderbilt ADHD scores (at least 25% decrease) (Tier 1, Week 2, 50 mg bid): 22%
Percent of subjects completing the dose escalation to 400 mg bid that show robust improvement in Vanderbilt ADHD scores (at least 40% decrease) (Tier 1, Week 2, 50 mg bid): 11%
Percent of subjects demonstrating robust improvement in Vanderbilt ADHD score (at least 40% decrease) (Tier 1, Week 2, 50 mg bid): 12%
Percent of subjects with improvement in Vanderbilt ADHD score (at least 25% decrease) (Tier 1, Week 2, 50 mg bid): 29%
Percent of subjects completing the dose escalation to 400 mg bid that show improvement in Vanderbilt ADHD scores (at least 25% decrease) (Tier 1, Week 3, 100 mg bid): 44%
Percent of subjects completing the dose escalation to 400 mg bid that show robust improvement in Vanderbilt ADHD scores (at least 40% decrease) (Tier 1, Week 3, 100 mg bid): 44%
Percent of subjects demonstrating robust improvement in Vanderbilt ADHD score (at least 40% decrease) [4]: 44%
Percent of subjects with improvement in Vanderbilt ADHD score (at least 25% decrease) [4]: 50%
Percent of subjects completing the dose escalation to 400 mg bid that show improvement in Vanderbilt ADHD scores (at least 25% decrease) (Tier 1, Week 4, 200 mg bid): 44%
Percent of subjects completing the dose escalation to 400 mg bid that show robust improvement in Vanderbilt ADHD scores (at least 40% decrease) (Tier 1, Week 4, 200 mg bid): 33%
Percent of subjects demonstrating robust improvement in Vanderbilt ADHD score (at least 40% decrease) [5]: 50%
Percent of subjects with improvement in Vanderbilt ADHD score (at least 25% decrease) [5]: 56%
Percent of subjects completing the dose escalation to 400 mg bid that show improvement in Vanderbilt ADHD scores (at least 25% decrease) (Tier 1, Week 5, 400 mg bid): 56%
Percent of subjects completing the dose escalation to 400 mg bid that show robust improvement in Vanderbilt ADHD scores (at least 40% decrease) (Tier 1, Week 5, 400 mg bid): 33%
Percent of subjects demonstrating robust improvement in Vanderbilt ADHD score (at least 40% decrease) [6]: 44%
Percent of subjects with improvement in Vanderbilt ADHD score (at least 25% decrease) [6]: 56%
Percent of subjects completing the dose escalation to 400 mg bid that show improvement in Vanderbilt ADHD scores (at least 25% decrease) (Tier 2, Week 2, 50 mg bid): 0%
Percent of subjects completing the dose escalation to 400 mg bid that show robust improvement in Vanderbilt ADHD scores (at least 40% decrease) (Tier 2, Week 2, 50 mg bid): 0%
Percent of subjects demonstrating robust improvement in Vanderbilt ADHD score (at least 40% decrease) (Tier 2, Week 2, 50 mg bid): 0%
Percent of subjects with improvement in Vanderbilt ADHD score (at least 25% decrease) (Tier 2, Week 2, 50 mg bid): 29%
Percent of subjects completing the dose escalation to 400 mg bid that show improvement in Vanderbilt ADHD scores (at least 25% decrease) (Tier 2, Week 3, 100 mg bid): 20%
Percent of subjects completing the dose escalation to 400 mg bid that show robust improvement in Vanderbilt ADHD scores (at least 40% decrease) (Tier 2, Week 3, 100 mg bid): 0%
Percent of subjects demonstrating robust improvement in Vanderbilt ADHD score (at least 40% decrease) [7]: 0%
Percent of subjects with improvement in Vanderbilt ADHD score (at least 25% decrease) [7]: 43%
Percent of subjects completing the dose escalation to 400 mg bid that show improvement in Vanderbilt ADHD scores (at least 25% decrease) (Tier 2, Week 4, 200 mg bid): 20%
Percent of subjects completing the dose escalation to 400 mg bid that show robust improvement in Vanderbilt ADHD scores (at least 40% decrease) (Tier 2, Week 4, 200 mg bid): 0%
Percent of subjects demonstrating robust improvement in Vanderbilt ADHD score (at least 40% decrease) [8]: 14%
Percent of subjects with improvement in Vanderbilt ADHD score (at least 25% decrease) [8]: 43%
Percent of subjects completing the dose escalation to 400 mg bid that show improvement in Vanderbilt ADHD scores (at least 25% decrease) (Tier 2, Week 5, 400 mg bid): 60%
Percent of subjects completing the dose escalation to 400 mg bid that show robust improvement in Vanderbilt ADHD scores (at least 40% decrease) (Tier 2, Week 5, 400 mg bid): 40%
Percent of subjects demonstrating robust improvement in Vanderbilt ADHD score (at least 40% decrease) [9]: 43%
Percent of subjects with improvement in Vanderbilt ADHD score (at least 25% decrease) [9]: 71%
Percent of subjects completing the dose escalation to 400 mg bid that show improvement in Vanderbilt ADHD scores (at least 25% decrease) (Tier 3, Week 2, 50 mg bid): 33%
Percent of subjects completing the dose escalation to 400 mg bid that show robust improvement in Vanderbilt ADHD scores (at least 40% decrease) (Tier 3, Week 2, 50 mg bid): 33%
Percent of subjects demonstrating robust improvement in Vanderbilt ADHD score (at least 40% decrease) (Tier 3, Week 2, 50 mg bid): 0%
Percent of subjects with improvement in Vanderbilt ADHD score (at least 25% decrease) (Tier 3, Week 2, 50 mg bid): 0%
Percent of subjects completing the dose escalation to 400 mg bid that show improvement in Vanderbilt ADHD scores (at least 25% decrease) (Tier 3, Week 3, 100 mg bid): 33%
Percent of subjects completing the dose escalation to 400 mg bid that show robust improvement in Vanderbilt ADHD scores (at least 40% decrease) (Tier 3, Week 3, 100 mg bid): 0%

— US12121514B2, “Nonselective metabotropic glutamate receptor activators for treatment of attention deficit disorder and 22Q syndrome” (THE CHILDREN'S HOSPITAL OF PHILADELPHIA, priority 2015, dated 2024)
